One data set deals with T1, hKallikrein (Homo sapiens, UniProt P03952).
T1 construct: purchased LOT180223
Nature of the data set: Selectivity to coagulation factors: kallikrein. Format: biochemical. The method, then: Example 52: Investigation of the Selectivity of the Compounds of the Present Invention to Coagulation Factors
Enzyme: hFXa: Human Factor Xa: 71nkat. hFIIa: HT5146L. hFVIIa: Human Factor VIIa: hFVIIa 4591L. kallikrein: LOT180223.
kallikrein buffer: 50 mM Tris, 50 mM Mimidazole and 150 mM NaCl (pH 8.2).
10 mM test compound dissolved in 100% DMSO was diluted with 100% DMSO to 1000, 200, 40, 8, 1.6 μM. 98 μL of enzyme solution was added to each well of a 96-well plate, while 98 μL of buffer was added to the blank wells. 2 μL of compounds of different concentrations were added, while the blank and control wells were added with DMSO instead. They were mixed with a shaker, and incubated at 37° C. for 20 min.
The concentrations of hFXa and S-2222™ were FXa (1:28) and 800 μmol/L, respectively. The concentrations of hFIIa and S-2238™ were hFIIa (0.06 U/ml) and 500 μmol/L, respectively. The concentrations of hFVIIa and S-2288™ were hFVIIa (80 nM) and 1600 μmol/L, respectively. The concentrations of kallikrein and substrate were kallikrein (20 nM) and 1600 μmol/L, respectively.
Finally, 100 μL substrate was added to each well, and its absorbance was measured at 405 nm.

The next data set addresses T2, CYP3A5 (Homo sapiens, UniProt P20815).
T2 construct: Liver microsomes (150-donor, Corning, Cat. 452117; Lot; 38292), NADPH; tissue Corning 452117; host or cells: liver microsomes, 150-donor pool
Nature of the data set: CYP enzyme inhibition in liver microsomes: CYP3A5. Format: in vitro ADME. The following applies: 0.2 mg/mL liver microsomes. How it is done:
(§1) Example 55: Investigation of CYP Enzyme Inhibition by the Compounds of the Present Invention Liver microsomes (150-donor, Corning, Cat. 452117; Lot. 38292), NADPH. A 0.2 mg/mL microsome system was prepared, each test substance and substrate were added, and the final concentration of the test substance was 50 μM. After pre-incubating for 8 min, 10 mM NADPH was added to start the reaction, and the final concentration of NADPH was 1 mM. After a period of incubation, an internal standard such as methanol was added to stop the reaction. The amount of substrate metabolites generated in each reaction well was detected. Data processing: Taking the metabolite generation in the blank well as 100%, the reduction of metabolite generation in each well of the test substance was calculated, and the inhibition rate was calculated.

Another data set addresses T3, CYP2C8 (Homo sapiens, UniProt P10632).
T3 construct: Liver microsomes (150-donor, Corning, Cat. 452117; Lot; 38292), NADPH; tissue Corning 452117; host or cells: liver microsomes, 150-donor pool
T3 sequence (P10632 1-490): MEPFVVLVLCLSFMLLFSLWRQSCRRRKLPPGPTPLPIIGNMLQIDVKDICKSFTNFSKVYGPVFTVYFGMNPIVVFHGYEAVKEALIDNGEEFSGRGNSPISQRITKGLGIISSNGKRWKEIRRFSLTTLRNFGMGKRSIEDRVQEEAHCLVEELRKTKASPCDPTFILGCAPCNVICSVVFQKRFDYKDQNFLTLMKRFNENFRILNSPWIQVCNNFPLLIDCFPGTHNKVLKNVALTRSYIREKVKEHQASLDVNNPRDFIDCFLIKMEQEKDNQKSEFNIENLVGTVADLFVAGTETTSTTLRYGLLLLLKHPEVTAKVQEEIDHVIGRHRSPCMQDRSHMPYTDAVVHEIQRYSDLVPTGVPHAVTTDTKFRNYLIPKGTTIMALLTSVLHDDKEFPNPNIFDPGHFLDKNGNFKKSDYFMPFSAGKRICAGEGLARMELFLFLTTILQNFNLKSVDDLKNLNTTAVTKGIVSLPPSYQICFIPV
Nature of the data set: CYP enzyme inhibition in liver microsomes: CYP2C8. The following applies: 0.2 mg/mL liver microsomes. Format: in vitro ADME. How it is done:
as §1

Data set [1] is described as follows: Beagle dog pharmacokinetics. Format: in vivo. The following applies: for AUC / Cmax / Tmax / clearance / half-life / Vd: male, plasma; for Vd: read-out: Vss. The source says: Example 53: Investigation of the Pharmacokinetic Characteristics of the Compounds of the Present Invention
SD rats: male, 180-250 g, purchased from Guangdong Medical Laboratory Animal Center. Cynomolgus monkey: male, 4-6 kg, purchased from Guangzhou Chunsheng Biological Research Institute Co., Ltd. Beagle dog: male, 8-12 kg, developed in Kanglong Chemical (Ningbo) New Drug Technology Co., Ltd.
Reagents: DMSO (dimethyl sulfoxide), PEG-400 (polyethylene glycol 400), normal brine, heparin, acetonitrile, formic acid, and propranolol (internal standard) are commercially available.
Instrumentation: Thermo Fisher Scientific LC-MS (U300 UPLC, TSQ […] ULTRA triple quadrupole mass spectrometer).
The compound was weighed and dissolved in DMSO-PEG-400-physiological brine (5:60:35, v/v/v) system. After the rats/monkeys were administered intravenously or by gavage, 200 μL of venous blood was collected at 5 min (not collected when administered by gavage), 15 min, 30 min, 1 h, 2 h, 4 h, 6 h, 8 h, and 24 h in heparinized EP tubes, centrifuged at 12000 rpm for 2 min, and the plasma was frozen at −80° C. for testing. A certain amount of the test substance was precisely weighed and dissolved in DMSO to 1 mg/mL, which was used as a stock solution. An appropriate amount of compound stock solution was accurately pipetted and diluted with acetonitrile to prepare a standard series of solutions. 20 μL of each of the above standard series solutions were accurately pipetted, added with 180 μL of blank plasma, vortexed and mixed to prepare plasma samples equivalent to plasma concentrations of 1, 3, 10, 30, 100, 300, 1000, 3000 and 5000 ng/mL. Two-sample analysis was performed for each concentration to establish a standard curve. 20 μL of plasma was taken out, added with 200 μL of internal standard propranolol (5 ng/mL) in acetonitrile, vortexed and mixed. It was centrifuged at 4000 rpm for 5 min, and the supernatant was collected for LC-MS analysis. LC-MS detection conditions were as follows:
Chromatographic column: Thermo Scientific […] GOLD C-18 UPLC column, 100*2.1 mm, 1.9 μm.
Mobile phase: water (0.1% formic acid)-acetonitrile for gradient elution according to the table below.
After blood drug concentrations being detected by LC-MS, WinNonlin 6.1 software was used to calculate pharmacokinetic parameters by non-compartmental model method.

The target of another data set is T4, CYP2C19 (Homo sapiens, UniProt P33261).
T4 construct: Liver microsomes (150-donor, Corning, Cat. 452117; Lot; 38292), NADPH; tissue Corning 452117; host or cells: liver microsomes, 150-donor pool
T4 sequence (P33261 whole entry): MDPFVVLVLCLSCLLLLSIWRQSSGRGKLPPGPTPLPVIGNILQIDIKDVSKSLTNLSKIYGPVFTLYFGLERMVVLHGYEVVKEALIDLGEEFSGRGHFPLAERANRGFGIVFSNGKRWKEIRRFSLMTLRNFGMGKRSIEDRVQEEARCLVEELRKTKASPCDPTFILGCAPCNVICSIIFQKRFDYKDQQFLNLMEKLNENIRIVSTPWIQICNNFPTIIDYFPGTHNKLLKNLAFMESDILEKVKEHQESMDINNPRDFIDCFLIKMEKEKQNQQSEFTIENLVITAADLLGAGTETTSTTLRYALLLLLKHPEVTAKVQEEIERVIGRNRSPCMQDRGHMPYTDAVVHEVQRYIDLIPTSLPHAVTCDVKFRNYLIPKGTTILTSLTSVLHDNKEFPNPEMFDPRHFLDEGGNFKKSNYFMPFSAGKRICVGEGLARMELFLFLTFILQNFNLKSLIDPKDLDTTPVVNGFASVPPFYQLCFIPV
Nature of the data set: CYP enzyme inhibition in liver microsomes: CYP2C19. Format: in vitro ADME. The following applies: 0.2 mg/mL liver microsomes. How it is done:
as §1

T2 sequence (P20815 whole entry): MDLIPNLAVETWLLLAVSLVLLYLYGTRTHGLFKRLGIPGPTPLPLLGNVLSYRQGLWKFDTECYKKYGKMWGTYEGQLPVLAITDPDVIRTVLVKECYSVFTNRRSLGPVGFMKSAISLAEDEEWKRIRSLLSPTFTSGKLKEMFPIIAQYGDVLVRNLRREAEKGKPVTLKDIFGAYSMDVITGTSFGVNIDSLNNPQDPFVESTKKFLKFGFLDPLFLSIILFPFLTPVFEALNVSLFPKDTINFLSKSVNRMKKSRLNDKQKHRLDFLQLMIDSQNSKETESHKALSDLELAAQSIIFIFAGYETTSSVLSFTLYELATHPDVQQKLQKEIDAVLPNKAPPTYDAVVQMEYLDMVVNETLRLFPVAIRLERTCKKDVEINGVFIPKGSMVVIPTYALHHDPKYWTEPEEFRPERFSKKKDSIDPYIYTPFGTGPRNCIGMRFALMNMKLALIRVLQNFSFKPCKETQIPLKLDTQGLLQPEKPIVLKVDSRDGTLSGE
T1 sequence (P03952 391-638 limits assumed): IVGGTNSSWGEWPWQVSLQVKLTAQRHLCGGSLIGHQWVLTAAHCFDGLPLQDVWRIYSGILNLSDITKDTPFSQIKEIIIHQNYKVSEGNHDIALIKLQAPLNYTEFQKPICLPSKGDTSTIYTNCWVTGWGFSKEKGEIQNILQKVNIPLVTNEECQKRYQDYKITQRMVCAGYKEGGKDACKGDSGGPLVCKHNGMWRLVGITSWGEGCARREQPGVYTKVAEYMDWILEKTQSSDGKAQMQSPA
T1 sequence (P03952 20-390 partner limits assumed): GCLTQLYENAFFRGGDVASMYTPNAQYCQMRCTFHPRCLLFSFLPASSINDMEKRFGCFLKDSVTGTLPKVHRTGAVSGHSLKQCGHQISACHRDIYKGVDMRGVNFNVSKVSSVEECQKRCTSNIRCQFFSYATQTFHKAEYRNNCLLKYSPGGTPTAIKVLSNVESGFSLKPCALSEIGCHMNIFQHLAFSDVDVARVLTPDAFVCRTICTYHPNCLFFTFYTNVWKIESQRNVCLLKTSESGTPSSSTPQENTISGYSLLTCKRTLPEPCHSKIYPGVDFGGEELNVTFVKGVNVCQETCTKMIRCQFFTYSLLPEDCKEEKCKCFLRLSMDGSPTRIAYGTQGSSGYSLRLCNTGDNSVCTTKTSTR

The IC50 is the concentration that inhibits the measured activity by half. Read a high IC50 as weaker potency in that assay. A word on the AUC: it is the area under the concentration-time curve, a measure of exposure. The low end stands for less exposure, the high end for more exposure. By Cmax is commonly meant the maximum level reached in the sampled fluid or tissue. By Tmax is commonly meant the time from dosing to the highest level. As a reminder, the clearance is a measure of how efficiently the substance is removed, as volume per time. Lower therefore signals a low capacity for elimination. Usually half-life stands for how long it takes for the measured level to halve. In the case of `CCC(=O)c1ccc(Cl)cc1-c1cc(=O)n([C@@H](Cc2ccccc2)C(=O)Nc2ccc(C(=O)O)cc2)nc1OC` [Example 32], the IC50 on hKallikrein turned out to be 0.103 ± 0.0149 µM. Also, the IC50 at CYP3A5 was > 50 µM. In addition, at CYP2C8, the IC50 was ~30 µM. For the same molecule, the F in data set [1] (ig) worked out at 49.6%. Moreover, in data set [1] (iv), the AUC worked out at 756 ng·h/mL, the concentration peaked (Cmax) at 2190 ng/mL, the time to peak (Tmax) was 0.083 h and the clearance is 22.7 mL/min/kg. In data set [1] (iv), the half-life is 7.77 h and the Vd came to 2.64 L/kg. Moreover, in data set [1] (po, ig), the area under the curve (AUC) was 3770 ng·h/mL, the Cmax was found to be 1600 ng/mL, the Tmax was 0.25 h and the half-life is 4.51 h. In addition, at CYP2C19, the IC50 is > 50 µM.
As for `COc1nn([C@@H](Cc2ccccc2)C(=O)Nc2ccc(C(=O)O)cc2)c(=O)cc1-c1cc(Cl)ccc1C(C)=O` [Example 19, (S)-4-(2-(4-(2-acetyl-5-chlorophenyl)-3-methoxy-6-oxopyridazin-1(6H)-yl)-3-phenylpropanamido)benzoic acid], the IC50 on hKallikrein was determined as 0.524 ± 0.0602 µM. For the same molecule, the concentration for half-maximal inhibition (IC50) against CYP3A5 was > 50 µM. Further, the IC50 against CYP2C8 was ~50 µM. Moreover, the F in data set [1] (ig) is reported as 65.5%. In data set [1] (iv), the AUC came out at 1410 ng·h/mL, the maximum concentration (Cmax) came out at 2580 ng/mL, the Tmax turned out to be 0.083 h and the clearance was 11.8 mL/min/kg. In data set [1] (iv), the half-life is 4.2 h and the Vd stood at 0.8 L/kg. In data set [1] (po, ig), the area under the curve (AUC) came out at 9230 ng·h/mL, the peak level (Cmax) was 2320 ng/mL, the Tmax worked out at 1.25 h and the half-life is 3.6 h. Further, the half-maximal inhibitory concentration (IC50) at CYP2C19 is > 50 µM.

The values are drawn from patent US20230027295A1, “FXIA INHIBITORS AND PREPARATION METHOD THEREFOR AND PHARMACEUTICAL USE THEREOF” (Shenzhen Salubris Pharmaceuticals Co., Ltd., priority 2019, published 2023).
